Laboratory results reported in patent US20210163451A1, “METHODS AND COMPOSITIONS FOR SUBSTITUTED 2,5-DIKETOPIPERAZINE ANALOGS” (University of Florida Research Foundation, Inc., priority 2018, published 2021).
Marks after values point to notes of the source that are not given here.

What was measured:
TxtB = TxtB substrate scope in TxtA/TxtB reactions; assay type: biochemical, S. scabies 87.22; set-up: key to TxtB substrate: +++++: Five ‘+’ represents the strong reactivity; ++++: The number of ‘+’ represents the reactivities of the enzymes to the substrate; +++: The number of ‘+’ represents the reactivities of the enzymes to the substrate; ++: The number of ‘+’ represents the reactivities of the enzymes to the substrate; +: one represent very weak reactivities
Protocol: Using the above strategy, it was determined that TxtB accepted only I-Trp among all 20 natural amino acids in the reaction (FIG. 2B, Table 1). When incubating with 15 I-Trp analogs with various substituents at α-position or C4, C5, C6 and C7 of I-Trp indole (Table 1), TxtB was able to use 4-F, 4-Me, 5-F, and 6-F-tryptophan as substrates in the DKP synthesis (Table 1). […] Indeed, the Micklefield group recently produced several thaxtomin analogs with C4-H, F, Cl, Br, or Me when expressing txtA/B in S. albus. The advanced understanding of substrate scopes of TxtA/B led to enzymatic creation of a library of 30 DKPs with 5 I-Trp analogs and 6 I-Phe analogs (FIG. 3C). The production of all DKPs were confirmed in HPLC analysis and verified in high resolution LC-MS analysis (Table 2).
(§1) TxtA/B reaction: 100 mM Tris-Cl (PH=8.0), 0.5 mM Nitro-L-tryptophan or L-tryptophan, 0.55 mM L-Phenylalanine, 3.2 μM txtA, 14.5 μM txtB, 2.5 mM ATP and 2 mM SAM in 100 μL reaction. 21° C. shaken with 400 rpm for 20 hours.
To probe the basis of chemical diversity of Thx DKP scaffold, next characterized was the substrate scopes of TxtA and TxtB. […] Bulkier aryl substituents decreased enzyme activity. […] From the modelled structure of TxtA adenylation (A) domain (FIG. 23), it was identified that Trp225 likely controls the binding of bulky L-Phe analogues. Indeed, the TxtA W225S mutant [Kries, H. et al. Angew. Chem. Int. Ed. Engl. […] We confirmed the product as p-azido-Thx D by HRMS, MS/MS, 1D and 2D NMR analysis (FIGS. 24-25). The substrate preference of TxtB was then assessed. […] Additionally, TxtB utilized 4F-L-, 5F-L-, 4Me-D,L- and 6F-D,L-Trp out of 15 L-Trp analogues carrying various substituents (Table 7) as substrates to synthesize desnitro dimethylated DKP analogues (FIG. 22). […] The tolerance to small modifications on L-Trp indole by TxtB agreed with a recent in vivo study by the Micklefield group [Winn, M. et al. Angew. Chem. Int. Ed. Engl. 2018 57:6830-6833]. […] Chem. Biol. 2018 14: 428-430].
(§2) The TxtA/B reaction solutions (100 μl) typically contained 100 mM Tris-Cl, pH 9.0, 0.5 mM amino acid substrates, 10 mM MgCl2, 2.5 mM ATP and 2 mM SAM. The reactions were initiated by adding 1.2 μM TxtA and 1.3 μM TxtB (final concentration) and incubated at 21° C. with shaking at 400 rpm. After 30 h, the reactions were terminated by mixing with 200 μl of methanol. Quenched solutions were centrifuged at 4° C., 16,000×g for 15 min and clear supernatants were collected and subjected to HPLC and LCMS analysis as detailed below. All experiments were repeated independently at least twice. The reaction solutions of TB14 and TxtA and TxtB were the same as those of TxtA and TxtB except the inclusion of 1.5 mM NAPDH, 0.75 mM NOC-5 and 11.1 μM TB14. The reactions were run for 30 h and the products were analyzed and quantitated as described above.

TxtA = TxtA substrate scope in TxtA/TxtB reactions; assay type: biochemical, S. scabies 87.22
Protocol: To explore whether TxtA/B are versatile to generate a library of thaxtomin D analogs, enzymes' substrate tolerance was then examined in the reactions. […] Subsequently, the substrate scope of TxtA with 17 I-Phe analogs was assessed with various substituents at α-position or C2, C3, and C4 of the aryl group (Table 1).
as §1
(§3) TB14 and txtA/B coupling reaction: 100 mM Tris-Cl (PH=8.0), 0.5 mM L-tryptophan, 0.55 mM L-Phenylalanine, 1.5 mM NAPDH, 0.75 mM NOC-5, 3.2 μM txtA, 14.5 μM txtB, 2.5 mM ATP, 2 mM SAM and 11.1 μM TB14 in 100 μL reaction. Opened to air, 21° C. shaken with 400 rpm for 30 hours.
(§4) To probe the basis of chemical diversity of Thx DKP scaffold, next characterized was the substrate scopes of TxtA and TxtB. […] Chem. Int. Ed. Engl. […] The substrate preference of TxtB was then assessed. […] Chem. Int. Ed. Engl. 2018 57:6830-6833]. […] Chem. Biol. 2018 14: 428-430].
as §2

TxtA-W225S = TxtA-W225S mutant substrate scope in TxtA/TxtB reactions; assay type: biochemical, S. scabies 87.22; conditions: for substrate preference of TxtAW225S mutant: Example 1; for TxtA-W225S substrate: Table 1, Example 1; for TxtAW225S substrate: Table 7, Example 2
Protocol: The nitro group of thaxtomins is essential for herbicidal activity, and is installed by TxtE. […] NADPH, NOC-5 as NO donor and SAM were included in the reaction. […] To further expand the substrate scope of TxtA, Trp225 was mutated into Ser in TxtA.
as §1, §3, §4, §2

radish seedlings = assay: Herbicidal activity in radish seedling assay; assay type: in vivo; conditions: total seedling length after 7 days on agar, 0 to 2 μM, mean±SD (n=4)
Protocol: Established protocols were followed to quantitate thaxtomin herbicidal activity in radish seedling assay (Jiang, G. et al. Appl Environ Microbiol 2018 84:e00164-18). In brief, serial concentrations (0 to 2 μM) of thaxtomins in DMSO were added into 20 mL of 1.5% warm agar solution with gentle agitation to prepare agar plates. DMSO was included as the negative control. Radish seeds (Burpee) were surface disinfested, pregerminated and selected when the radicle was […] and just emerged from the seed coat. Six radish seedlings were equally located on the surface of each plate with root ends pointed to the same direction. Agar plates were covered, sealed with Parafilm. Seedlings in agar plates grew at room temperature under 14-16 h fluorescent light per day for 7 days, and total seedling lengths were then recorded. The longest and the shorted seedlings would be excluded from the data analysis. Percent inhibition relative to the mean growth response in negative control was then calculated. Dose-response curves were fit to a four-parameter logistic model, and I50 values were determined from these curves.

[1] = test system: TB14, TCB14, TxtA and TxtB; assay: Conversion to thaxtomin A analogues in the reactions of TB14, TCB14, TxtA and TxtB; assay type: biochemical; conditions: thaxtomin A analogue product from the listed L-Phe and L-Trp analogues
[2] = Example 1, TxtA/B reaction with 4-NO2-L-Trp as TxtB substrate
[3] = Example 2, reaction of TB14, TxtA and TxtB

SMILES: Cc1cccc2[nH]cc(CC(N)C(=O)O)c12 (racemic) [4Me-D,L-Tryptophan]
- TxtB substrate (TxtB; Table 1, Example 1): ++
- TxtB substrate (TxtB; Table 7, Example 2): +++

SMILES: NC(Cc1c[nH]c2cc(F)ccc12)C(=O)O (racemic) [6F-Tryptophan, 6F-D,L-tryptophan]
- TxtB substrate (TxtB; Table 1, Example 1): ++
- TxtB substrate (TxtB; Table 7, Example 2): +

SMILES: N[C@@H](Cc1ccccc1Br)C(=O)O [2Br-L-phenylalanine]
- TxtA substrate (TxtA; Table 1, Example 1): +
- TxtA substrate (TxtA; Table 7, Example 2): +

SMILES: N[C@@H](Cc1ccccc1F)C(=O)O [2F-L-phenylalanine]
- relative activity of TxtA toward substrate, relative to L-Phe (TxtA; [2]): same level of activity
- relative activity of TxtA toward substrate, relative to L-Phe (TxtA; [3]): ~73%
- TxtA substrate (TxtA; Table 1, Example 1): ++++
- TxtA substrate (TxtA; Table 7, Example 2): ++++

SMILES: Cc1ccccc1C[C@H](N)C(=O)O [2Me-L-phenylalanine]
- TxtA substrate (TxtA; Table 1, Example 1): +++
- TxtA substrate (TxtA; Table 7, Example 2): ++

SMILES: N[C@@H](Cc1cccc(Br)c1)C(=O)O [3Br-L-phenylalanine]
- TxtA substrate (TxtA; Table 1, Example 1): +
- TxtA substrate (TxtA; Table 7, Example 2): +

SMILES: N[C@@H](Cc1cccc(Cl)c1)C(=O)O [3Cl-L-phenylalanine]
- TxtA substrate (TxtA; Table 1, Example 1): ++
- TxtA substrate (TxtA; Table 7, Example 2): +

SMILES: N[C@@H](Cc1cccc(F)c1)C(=O)O [3F-L-phenylalanine]
- relative activity of TxtA toward substrate, relative to L-Phe (TxtA; [2]): same level of activity
- relative activity of TxtA toward substrate, relative to L-Phe (TxtA; [3]): equally active
- TxtA substrate (TxtA; Table 1, Example 1): +++++
- TxtA substrate (TxtA; Table 7, Example 2): +++++

SMILES: Cc1cccc(C[C@H](N)C(=O)O)c1 [3Me-L-phenylalanine]
- relative activity of TxtA toward substrate, relative to L-Phe (TxtA; [2]): about 12%
- relative activity of TxtA toward substrate, relative to L-Phe (TxtA; [3]): about 27%
- TxtA substrate (TxtA; Table 1, Example 1): ++
- TxtA substrate (TxtA; Table 7, Example 2): ++

SMILES: [N-]=[N+]=Nc1ccc(C[C@H](N)C(=O)O)cc1 [4-Azidophenylalanine]
- relative activity of TxtA toward substrate, relative to L-Phe (TxtA; [3]): did not accept
- substrate preference of TxtAW225S mutant (TxtA-W225S): strong preference
- substrate preference of TxtA W225S mutant (TxtA-W225S; Example 2, reaction with TB14, TxtA and TxtB): strong preference over L-Phe
- TxtA-W225S substrate (TxtA-W225S): ++
- TxtAW225S substrate (TxtA-W225S): ++

SMILES: N[C@@H](Cc1c[nH]c2cccc([N+](=O)[O-])c12)C(=O)O [4-nitro-L-Tryptophan]
- TxtB substrate (TxtB; Table 1, Example 1): +++++
- TxtB substrate (TxtB; Table 7, Example 2): +++++

SMILES: N[C@@H](Cc1ccc(Br)cc1)C(=O)O [4Br-L-phenylalanine]
- TxtA substrate (TxtA; Table 1, Example 1): +
- TxtA substrate (TxtA; Table 7, Example 2): +

SMILES: N[C@@H](Cc1ccc(Cl)cc1)C(=O)O [4Cl-L-phenylalanine]
- TxtA substrate (TxtA; Table 1, Example 1): ++
- TxtA substrate (TxtA; Table 7, Example 2): +

SMILES: N[C@@H](Cc1c[nH]c2cccc(F)c12)C(=O)O [4F--Tryptophan, 4F-L-tryptophan]
- TxtB substrate (TxtB; Table 1, Example 1): +
- TxtB substrate (TxtB; Table 7, Example 2): +

SMILES: N[C@@H](Cc1ccc(F)cc1)C(=O)O [4F-L-phenylalanine]
- relative activity of TxtA toward substrate, relative to L-Phe (TxtA; [2]): ~72%
- TxtA substrate (TxtA; Table 1, Example 1): +++
- TxtA substrate (TxtA; Table 7, Example 2): ++

SMILES: Cc1ccc(C[C@H](N)C(=O)O)cc1 [4Me-L-phenylalanine]
- TxtA substrate (TxtA; Table 1, Example 1): +++
- TxtA substrate (TxtA; Table 7, Example 2): +

SMILES: Cc1ccc(C[C@@]2(O)C(=O)N(C)[C@@H](Cc3c[nH]c4cccc([N+](=O)[O-])c34)C(=O)N2C)cc1O [4′Me-Thx A, 4′Me-thaxtomin A]
- IC50 (radish seedlings; Raphanus sativus, 168 h): 0.41 ± 0.01 µM

SMILES: Cc1ccc(C[C@H]2C(=O)N(C)[C@@H](Cc3c[nH]c4cccc([N+](=O)[O-])c34)C(=O)N2C)cc1 [4′Me-Thx D, 4′Me-thaxtomin D]
- IC50 (radish seedlings; Raphanus sativus, 168 h): 0.48 ± 0.04 µM

SMILES: N[C@@H](Cc1c[nH]c2ccc(F)cc12)C(=O)O [5F-Tryptophan, 5F-L-tryptophan]
- TxtB substrate (TxtB; Table 1, Example 1): ++
- TxtB substrate (TxtB; Table 7, Example 2): ++

SMILES: N[C@@H](Cc1ccccc1)C(=O)O [L-phenylalanine]
- TxtA substrate (TxtA; Table 1, Example 1): +++++^a
- TxtA substrate (TxtA; Table 7, Example 2): +++++
- TxtA-W225S substrate (TxtA-W225S): +
- TxtAW225S substrate (TxtA-W225S): +

SMILES: N[C@@H](Cc1c[nH]c2ccccc12)C(=O)O [L-tryptophan]
- TxtB activity, times less active than 4-NO2-L-Trp (TxtB; Example 2, reaction without TB14): 12 times
- TxtB substrate (TxtB; Table 1, Example 1): +
- TxtB substrate (TxtB; Table 7, Example 2): +

SMILES: N[C@@H](Cc1ccc(O)cc1)C(=O)O [L-tyrosine]
- substrate preference of TxtAW225S mutant (TxtA-W225S): lower activity
- TxtA-W225S substrate (TxtA-W225S): ++

SMILES: CN1C(=O)[C@H](Cc2c[nH]c3cccc([N+](=O)[O-])c23)N(C)C(=O)[C@@H]1Cc1ccc(N=[N+]=[N-])cc1 [compound 42]
- Conversion rate % (TxtA-W225S; catalyzed by TxtB and TxtAW225S (with TB14)): 20.90%

SMILES: Cc1ccc(C[C@@]2(O)C(=O)N(C)[C@@H](Cc3c[nH]c4cccc([N+](=O)[O-])c34)C(=O)N2C)cc1O [compound 118]
- Conversion rate % [1]: 3.98%

SMILES: Cc1cccc2[nH]cc(CC3C(=O)N(C)C(Cc4ccccc4)C(=O)N3C)c12 (centres unmarked) [desnitro-4Me-Thx D]
- IC50 (radish seedlings): 1.98 ± 0.02 µM

SMILES: CN1C(=O)[C@H](Cc2c[nH]c3cccc([N+](=O)[O-])c23)N(C)C(=O)[C@@H]1Cc1ccc(N=[N+]=[N-])cc1 [p-N3-Thx D, p-N3-thaxtomin D]
- IC50 (radish seedlings; Raphanus sativus, 168 h): 1.29 ± 0.21 µM
